In experiment [1] the test system is STAM model of non-alcoholic steatohepatitis. The experiment is described as follows: STAM model of NASH: plasma ALT. The class given is in vivo, mice. The settings on record: for Plasma ALT (mean ± SD): n = 8. The procedure: NASH was induced in 48 male mice by a single subcutaneous injection of 200 μg streptozotocin (STZ, Sigma-Aldrich, USA) solution 2 days after birth and feeding with high fat diet (HFD, 57 kcal % fat, Cat #HFD32, CLEA Japan, Inc., Japan) after 4 weeks of age. Compound A was administered at 3 dose levels of 10, 20 and 40 mg/kg once daily from 6 to 9 weeks of age. Compound B was administered at a dose of 40 mg/kg once daily from 6 to 9 weeks of age. Telmisartan was administered at a dose of 10 mg/kg once daily from 6 to 9 weeks of age. For plasma biochemistry, non-fasting blood was collected in polypropylene tubes with anticoagulant (Novo-Heparin, Mochida Pharmaceutical Co. Ltd., Japan) and centrifuged at 1,000×g for 15 minutes at 4° C. The supernatant was collected and stored at −80° C. until use. Plasma ALT was measured by FUJI DRI-CHEM 7000 (Fujifilm, Japan).

The test system is the same in experiment [2]. The experiment is described as follows: STAM model of NASH: liver triglyceride content. The settings on record: for Liver triglyceride (mean ± SD): n = 8. The class given is in vivo, mice. As to the method:
(§1) NASH was induced in 48 male mice by a single subcutaneous injection of 200 μg streptozotocin (STZ, Sigma-Aldrich, USA) solution 2 days after birth and feeding with high fat diet (HFD, 57 kcal % fat, Cat #HFD32, CLEA Japan, Inc., Japan) after 4 weeks of age.
(§2) Compound A was administered at 3 dose levels of 10, 20 and 40 mg/kg once daily from 6 to 9 weeks of age. Compound B was administered at a dose of 40 mg/kg once daily from 6 to 9 weeks of age. Telmisartan was administered at a dose of 10 mg/kg once daily from 6 to 9 weeks of age.
Liver total lipid-extracts were obtained by Folch's method (Folch J. et al., J. Biol. Chem. 1957; 226: 497). Liver samples were homogenized in chloroform-methanol (2:1, v/v) and incubated overnight at room temperature. After washing with chloroform-methanol-water (8:4:3, v/v/v), the extracts were evaporated to dryness, and dissolved in isopropanol. Liver triglyceride content was measured by Triglyceride E-test (FUJIFILM Wako Pure Chemical Corporation, Japan).

Experiment [3] shares this test system. The class given is in vivo. The settings on record: for Liver weight (mean ± SD) / Liver-to-body weight ratio (mean ± SD): n = 8.
Source text: To prepare dosing solution, Compound A and B were weighed and suspended in Vehicle which was composed of 20% of Vehicle-A1 and 80% of Vehicle-A2. Vehicle-A1 was composed of 0.5% (w/v) Carboxymethyl cellulose (CMC) 400-800 centipoises in water for injection+2.5% (w/v) Tween 80. Vehicle-A2 was composed of 0.5% (w/v) Carboxymethyl cellulose (CMC) 400-800 centipoises in water for injection. Telmisartan (Micardis®) was purchased from Boehringer Ingelheim GmbH (Germany) and dissolved in pure water.
as §1
Compound A and B, and Telmisartan were administered orally in a volume of 10 mL/kg.
as §2
C57BL/6 mice (14-day-pregnant female) were obtained from Japan SLC, Inc. (Japan). All animals used in the study were housed and cared for in accordance with the Japanese Pharmacological Society Guidelines for Animal Use.
Group 1: Vehicle Eight NASH mice were orally administered vehicle [20% of Vehicle-A1 and 80% of Vehicle-A2] in a volume of 10 mL/kg once daily from 6 to 9 weeks of age.
Eight NASH mice were orally administered vehicle supplemented with Compound A at a dose of 10 mg/kg once daily from 6 to 9 weeks of age.
Eight NASH mice were orally administered vehicle supplemented with Compound A at a dose of 20 mg/kg once daily from 6 to 9 weeks of age.
Eight NASH mice were orally administered vehicle supplemented with Compound A at a dose of 40 mg/kg once daily from 6 to 9 weeks of age.
Eight NASH mice were orally administered vehicle supplemented with Compound B at a dose of 40 mg/kg once daily from 6 to 9 weeks of age.
Eight NASH mice were orally administered pure water supplemented with Telmisartan at a dose of 10 mg/kg once daily from 6 to 9 weeks of age.
The viability, clinical signs and behavior were monitored daily. Body weight was recorded before the treatment. […] The animals were sacrificed at 9 weeks of age by exsanguination through direct cardiac puncture under isoflurane anesthesia (Pfizer Inc.).

Experiment [4] shares this test system. As to the kind of experiment: STAM model of NASH: Alpha-SMA immunostaining. The settings on record: for Alpha-SMA-positive area (mean ± SD): n = 8. The format is in vivo, mice. The procedure:
NASH was induced in 48 male mice by a single subcutaneous injection of 200 μg streptozotocin (STZ, Sigma-Aldrich, USA) solution 2 days after birth and feeding with high fat diet (HFD, 57 kcal % fat, Cat #HFD32, CLEA Japan, Inc., Japan) after 4 weeks of age. Compound A was administered at 3 dose levels of 10, 20 and 40 mg/kg once daily from 6 to 9 weeks of age. Compound B was administered at a dose of 40 mg/kg once daily from 6 to 9 weeks of age. Telmisartan was administered at a dose of 10 mg/kg once daily from 6 to 9 weeks of age. […] (Table 9 herein after)

Experiment [5] has the same test system. As to the kind of experiment: STAM model of NASH: HE staining and NAFLD Activity score. Further details: key to NAFLD Activity score (mean ± SD): NAFLD Activity score per Kleiner et al. 2005 criteria. The format is in vivo, mice. The procedure:
(§3) NASH was induced in 48 male mice by a single subcutaneous injection of 200 μg streptozotocin (STZ, Sigma-Aldrich, USA) solution 2 days after birth and feeding with high fat diet (HFD, 57 kcal % fat, Cat #HFD32, CLEA Japan, Inc., Japan) after 4 weeks of age. Compound A was administered at 3 dose levels of 10, 20 and 40 mg/kg once daily from 6 to 9 weeks of age. Compound B was administered at a dose of 40 mg/kg once daily from 6 to 9 weeks of age. Telmisartan was administered at a dose of 10 mg/kg once daily from 6 to 9 weeks of age. For HE staining, sections were cut from paraffin blocks of liver tissue prefixed in Bouin's solution and stained with Lillie-Mayer's Hematoxylin (Muto Pure Chemicals Co., Ltd., Japan) and eosin solution (FUJIFILM Wako Pure Chemical Corporation). NAFLD Activity score (NAS) was calculated according to the criteria of Kleiner (Kleiner D E. et al., Hepatology, 2005; 41:1313). To visualize collagen deposition, Bouin's fixed liver sections were stained using picro-Sirius red solution (Waldeck, Germany). For quantitative analysis of fibrosis area, bright field images of Sirius red-stained sections were captured around the central vein using a digital camera (DFC295; Leica, Germany) at 200-fold magnification, and the positive areas in 5 fields/section were measured using ImageJ software (National Institute of Health, USA).

Experiment [6] has the same test system. The experiment is described as follows: STAM model of NASH: F4/80 immunostaining. The settings on record: for F4/80-positive area (mean ± SD): n = 8. The format is in vivo, mice. As to the method:
as §1, §2

The test system is the same in experiment [7]. The experiment is described as follows: STAM model of NASH: Sirius red staining, fibrosis area. The format is in vivo, mice. The settings on record: for Sirius red-positive area (fibrosis area, mean ± SD): n = 8. The procedure:
as §3

[8] abbreviates: 40 mg/kg PO QD (Compound A high, Compound B groups).
Setting [9] is: 40 mg/kg PO QD, 6-9 wks of age (Compound A high, Compound B groups).
The mark [10] stands for this setting: 40 mg/kg PO QD (Compound B group).
Setting [11] is: 40 mg/kg PO QD, 6-9 wks of age (Compound A high, Compound B groups), n = 8.
[12] abbreviates: summary statement, dose not stated.
Where [13] appears, read: 10 mg/kg PO QD (Compound A low, Telmisartan groups).
The mark [14] stands for this setting: 10 mg/kg PO QD, 6-9 wks of age (Compound A low, Telmisartan groups).
Setting [15] is: 10 mg/kg PO QD (Telmisartan group).
Setting [16] is: 10 mg/kg PO QD, 6-9 wks of age (Compound A low, Telmisartan groups), n = 8.

Each structure is given as a SMILES string. Entries after “also recorded” stand apart in the source; their conditions may differ. Read-outs that look alike come from different tables or passages of the source.

`O=C(O)[C@H]1O[C@@H](N(c2ccc(OC(F)(F)F)cc2)c2ccc3cccc(Cl)c3n2)[C@H](O)[C@@H](O)[C@@H]1O` [Compound B]: the “Plasma ALT level compared with the Vehicle group” value in experiment [1] (setting [8]) is recorded as “tended to increase; also recorded: increasing trends”. Further, in experiment [1] (setting [9]), the “Plasma ALT (mean ± SD)” value turned out to be 72 ± 24 U/L. In addition, the “Liver triglyceride content compared with the Vehicle group” value in experiment [2] (setting [10]) is given as “tended to increase; also recorded: increasing trends”. Further, the “Liver triglyceride (mean ± SD)” value in experiment [2] (setting [9]) amounted to 82.9 ± 32.6 mg/g liver. Moreover, in experiment [3] (setting [8]), the “Mean liver weight compared with the Vehicle group” value is “tended to increase” and the “Mean liver-to-body weight ratio compared with the Vehicle group” value is given as “tended to increase”. Besides, in experiment [3] (setting [9]), the “Liver weight (mean ± SD)” value is 1606 ± 227 mg and the “Liver-to-body weight ratio (mean ± SD)” value is 8.1 ± 1.1%. In addition, the “Alpha-SMA-positive area (mean ± SD)” value in experiment [4] (setting [9]) is 1.17 ± 0.79%. Also, the “NAS compared with the Vehicle group” value in experiment [5] (setting [8]) is recorded as “tended to decrease; also recorded: decreasing trend”. Further, in experiment [5] (setting [11]), the “Hepatocyte ballooning score 0 (None), number of mice” value came to 5; the “Hepatocyte ballooning score 1 (Few balloon cells), number of mice” value is recorded as 2; the “Hepatocyte ballooning score 2 (Many cells/prominent ballooning), number of mice” value is on record as 1; the “Lobular inflammation score 2 (2-4 foci/200×), number of mice” value is reported as 3. Also, in experiment [5] (setting [11]), the “Lobular inflammation score 3 (>4 foci/200×), number of mice” value was 5; the “NAFLD Activity score (mean ± SD)” value is reported as 3.6 ± 1.2; the “Steatosis score 0 (<5%), number of mice” value amounted to 4; the “Steatosis score 1 (5-33%), number of mice” value stood at 4. In experiment [5] (conclusion of the study), the “Overall effect in this NASH model” value is recorded as “potential anti-NAS effect”. In experiment [5] (setting [12]), the “NAS compared with the Vehicle group” value is “decreasing trends”. In experiment [6] (setting [8]), the “F4/80-positive area compared with the Vehicle group” value is reported as “tended to decrease”. For the same compound, in experiment [6] (setting [9]), the “F4/80-positive area (mean ± SD)” value was determined as 1.90 ± 0.89%. In addition, the “Fibrosis area (Sirius red-positive area) compared with the Vehicle group” value in experiment [7] (setting [10]) was “tended to increase; also recorded: increasing trends”. For the same compound, the “Sirius red-positive area (fibrosis area, mean ± SD)” value in experiment [7] (setting [9]) worked out at 0.94 ± 0.23%.
With `CCCc1nc2c(C)cc(-c3nc4ccccc4n3C)cc2n1Cc1ccc(-c2ccccc2C(=O)O)cc1` [Telmisartan, reference compound], the “Plasma ALT level compared with the Vehicle group” value in experiment [1] (setting [13]) was “no significant difference”. For the same compound, the “Plasma ALT (mean ± SD)” value in experiment [1] (setting [14]) is listed as 56 ± 14 U/L. Further, in experiment [2] (setting [15]), the “Liver triglyceride content compared with the Vehicle group” value was “tended to decrease; also recorded: decreasing trend”. For the same compound, the “Liver triglyceride (mean ± SD)” value in experiment [2] (setting [14]) is recorded as 41.5 ± 16.9 mg/g liver. In addition, in experiment [3] (setting [13]), the “Mean liver weight compared with the Vehicle group” value is “significant decrease” and the “Mean liver-to-body weight ratio compared with the Vehicle group” value is given as “tended to decrease”. Also, in experiment [3] (setting [14]), the “Liver weight (mean ± SD)” value is 1115 ± 78 mg and the “Liver-to-body weight ratio (mean ± SD)” value was 6.5 ± 0.4%. Besides, the “Alpha-SMA-positive area compared with the Vehicle group” value in experiment [4] (setting [15]) is listed as “tended to decrease”. Also, the “Alpha-SMA-positive area (mean ± SD)” value in experiment [4] (setting [14]) was found to be 0.83 ± 0.26%. In experiment [5] (setting [13]), the “NAS compared with the Vehicle group” value is on record as “significant decrease”. For the same compound, in experiment [5] (setting [16]), the “Hepatocyte ballooning score 0 (None), number of mice” value is reported as 7; the “Hepatocyte ballooning score 1 (Few balloon cells), number of mice” value amounted to 1; the “Lobular inflammation score 2 (2-4 foci/200×), number of mice” value is 4; the “Lobular inflammation score 3 (>4 foci/200×), number of mice” value is 4. In addition, in experiment [5] (setting [16]), the “NAFLD Activity score (mean ± SD)” value is given as 2.8 ± 0.7; the “Steatosis score 0 (<5%), number of mice” value was 7; the “Steatosis score 1 (5-33%), number of mice” value is 1. For the same compound, the “F4/80-positive area (mean ± SD)” value in experiment [6] (setting [14]) is given as 3.03 ± 0.95%. Besides, the “Sirius red-positive area (fibrosis area, mean ± SD)” value in experiment [7] (setting [14]) worked out at 0.70 ± 0.13%.
For the compound `O=C(O)[C@H]1O[C@@H](N(c2ccc(OC(F)(F)F)cc2)c2ccc3cccc(Cl)c3n2)[C@H](O)[C@@H](O)[C@@H]1O` [drawing 253], in experiment [5] (setting [12]), the “NAS compared with the Vehicle group” value was “decreasing trend”.

These data come from patent publication US11992499B2, “Quinoline derivatives for use in the treatment of inflammation diseases” (ABIVAX, priority 2018, dated 2024).
